Laboratory results taken from US12043600B2, “Microbiocidal compounds” (SYNGENTA CROP PROTECTION AG, priority 2018, dated 2024).

Experiments:
[1] = test system: Puccinia recondita f. sp. tritici; test: Puccinia recondita f. sp. tritici/Wheat/Leaf Disc Curative (Brown Rust); type: in vivo; conditions: foliar, wheat leaf disc curative, compared to untreated control
Outline: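 Formulated compound, diluted in water, is applied to inoculated wheat cv. Kanzler leaf segments on agar one day post-inoculation (pre-incubation dark, 19° C, 75% rh). After 6-8 days at 19° C, 75% rh and 12 h/12 h light, activity is rated as percent disease control relative to untreated segments.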

[2] = test system: Mycosphaerella graminicola (Septoria tritici); test: Mycosphaerella graminicola (Septoria tritici)/Liquid Culture (Septoria Blotch); type: cell-based; conditions: Zymoseptoria tritici; 20 ppm; liquid culture; compared to untreated control
Outline: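 Results given as % disease control: test compound in DMSO was placed in wells first, then potato dextrose broth carrying cryostored fungal conidia was added.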

[3] = test system: Monographella nivalis (Microdochium nivale); test: Monographella nivalis (Microdochium nivale)/Liquid Culture (Foot Rot Cereals); type: cell-based; conditions: liquid culture, compared to untreated control
Outline: (§1)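 Liquid-culture format using potato dextrose broth inoculated directly with cryopreserved conidia, dosed with compound from a DMSO solution.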

[4] = test system: Alternaria solani; test: Alternaria solani/Tomato/Leaf Disc (Early Blight); type: in vivo; conditions: foliar, tomato leaf disc, compared to untreated control
Procedure: Tomato leaf disks cv. Baby are placed on agar in multiwell plates (24-well format) and sprayed with the formulated test compound diluted in water. The leaf disks are inoculated with a spore suspension of the fungus 2 days after application. The inoculated leaf disks are incubated at 23° C./21° C. (day/night) and 80% rh (relative humidity) under a light regime of 12/12 h (light/dark) in a climate cabinet and the activity of a compound is assessed as percent disease control compared to untreated when an appropriate level of disease damage appears on untreated check disk leaf disks (5-7 days after application).

[5] = test system: Blumeria graminis f. sp. tritici (Erysiphe graminis f. sp. tritici); test: Blumeria graminis f. sp. tritici/Wheat/Leaf Disc Preventative (Powdery Mildew on Wheat); type: in vivo; conditions: foliar, wheat leaf disc preventative, compared to untreated control
Outline: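 Preventative leaf-disc test: percent disease control versus untreated leaf segments read 6-8 days post-application. Compound spray applied to wheat cv. Kanzler segments on agar one day before shaking infected plants over them; incubation at 20° C and 60% rh, 24 h darkness then 12 h light/12 h dark cycles.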

[6] = test system: Magnaporthe grisea (Pyricularia oryzae); test: whole plant or invertebrate; type: in vivo; conditions: foliar, read-out: control of Magnaporthe grisea
[7] = test system: Plasmopara viticola; test: whole plant or invertebrate; type: in vivo; conditions: foliar, read-out: control of Plasmopara viticola
[8] = test system: Botryotinia fuckeliana (Botrytis cinerea); test: Botryotinia fuckeliana (Botrytis cinerea)/Liquid Culture (Gray Mould); type: cell-based; conditions: liquid culture, compared to untreated control
Procedure: Conidia of the fungus from cryogenic storage are directly mixed into nutrient broth (Vogels broth). After placing a (DMSO) solution of test compound into a microtiter plate (96-well format), the nutrient broth containing the fungal spores is added.

[9] = test system: Phaeosphaeria nodorum (Septoria nodorum); test: Phaeosphaeria nodorum (Septoria nodorum)/Wheat/Leaf Disc Preventative (Glume Blotch); type: in vivo; conditions: Parastagonospora nodorum, foliar, wheat leaf disc preventative, compared to untreated control
Outline: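 Preventative test: compound spray first, then spore inoculation after 2 days on cv. Kanzler wheat leaf segments. Incubation in a climate cabinet at 20 °C and 75% rh under a 12 h light/12 h dark cycle. Activity rated as % control relative to untreated discs at 5–7 days post-application.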

[10] = test system: Glomerella lagenarium (Colletotrichum lagenarium); test: Glomerella lagenarium (Colletotrichum lagenarium)/Liquid Culture (Anthracnose); type: cell-based; conditions: Colletotrichum orbiculare, liquid culture, compared to untreated control
[11] = test system: Mycosphaerella arachidis (Cercospora arachidicola); test: Mycosphaerella arachidis (Cercospora arachidicola)/Liquid Culture (Early Leaf Spot); type: cell-based; conditions: liquid culture, compared to untreated control
Outline: as §1

[12] = test system: Puccinia recondita f. sp. tritici; test: Puccinia recondita f. sp. tritici/Wheat/Leaf Disc Preventative (Brown Rust); type: in vivo; conditions: foliar, 200 ppm, wheat leaf disc preventative, compared to untreated control, read-out: control of Puccinia recondita f. sp. tritici
[13] = test system: Thanatephorus cucumeris (Rhizoctonia solani); test: Thanatephorus cucumeris (Rhizoctonia solani)/Liquid Culture (Foot Rot, Damping-Off); type: cell-based; conditions: liquid culture, compared to untreated control
Procedure: Mycelia fragments of a newly grown liquid culture of the fungus are directly mixed into nutrient broth (PDB potato dextrose broth). After placing a (DMSO) solution of the test compounds into a microtiter plate (96-well format), the nutrient broth containing the fungal material is added.

[14] = test system: Phytophthora infestans; test: whole plant or invertebrate; type: in vivo; conditions: in Solanum lycopersicum, foliar, read-out: control of Phytophthora infestans
[15] = test system: Phakopsora pachyrhizi; test: Phakopsora pachyrhizi/Soybean/Preventative (Soybean Rust); type: in vivo; conditions: foliar, 288 h, 200 ppm, soybean leaf disc preventative, compared to untreated control, read-out: control of Phakopsora pachyrhizi
[16] = test system: Pyrenophora teres; test: Pyrenophora teres/Barley/Leaf Disc Preventative (Net Blotch); type: in vivo; conditions: foliar, 200 ppm, barley leaf disc preventative, compared to untreated control, read-out: control of Pyrenophora teres
Outline: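 Preventative leaf-disc test: inoculation with fungal spores took place 2 days after spraying segments of barley cv. Hasso, placed on agar, with water-diluted formulated compound. Read-out is % disease control per compound.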

With CO/C=C(\Oc1cc(-n2cc(I)cn2)ccc1C)C(=O)OC [Compound E-60, methyl (Z)-2-[5-(4-iodopyrazol-1-yl)-2-methyl-phenoxy]-3-methoxy-prop-2-enoate] the pest or weed control at 200 ppm [1] was ≥ 80%, the inhibition of growth at 20 ppm [2] was ≥ 80% and the inhibition of growth at 20 ppm [3] was ≥ 80%. For the same molecule, the pest or weed control at 200 ppm [4] was ≥ 80%, the pest or weed control at 200 ppm [5] was ≥ 80% and the pest or weed control at 200 ppm [6] was ≥ 80%. The pest or weed control at 200 ppm [7] was ≥ 80%, the inhibition of growth at 20 ppm [8] was ≥ 80% and the pest or weed control at 200 ppm [9] was ≥ 80%. The inhibition of growth at 20 ppm [10] was ≥ 80%, the inhibition of growth at 20 ppm [11] was ≥ 80% and the pest or weed control at 200 ppm [12] was ≥ 80%. The inhibition of growth at 20 ppm [13] was ≥ 80% and the pest or weed control at 200 ppm [14] was ≥ 80%.
In the case of CO/C=C(\Oc1cc(-n2cc(C3CCCC3)cn2)ccc1C)C(=O)OC [Compound E-58, methyl (Z)-2-[5-(4-cyclopentylpyrazol-1-yl)-2-methyl-phenoxy]-3-methoxy-prop-2-enoate], the pest or weed control at 200 ppm [1] is reported as ≥ 80%, the inhibition of growth at 20 ppm [2] is reported as ≥ 80% and the inhibition of growth at 20 ppm [3] is reported as ≥ 80%. For the same molecule, the pest or weed control at 200 ppm [4] was ≥ 80%, the pest or weed control at 200 ppm [5] was ≥ 80% and the pest or weed control at 200 ppm [6] was ≥ 80%. The pest or weed control at 200 ppm [7] was ≥ 80%, the inhibition of growth at 20 ppm [8] was ≥ 80% and the pest or weed control at 200 ppm [9] was ≥ 80%. For the same molecule, the inhibition of growth at 20 ppm [10] was ≥ 80%, the inhibition of growth at 20 ppm [11] was ≥ 80% and the pest or weed control at 200 ppm [12] was ≥ 80%. The pest or weed control at 200 ppm [15] was ≥ 50%, the inhibition of growth at 20 ppm [13] was ≥ 80% and the pest or weed control at 200 ppm [14] was ≥ 80%.
With CO/C=C(\Oc1cc(C)cc(-n2ccc(C(F)(F)F)n2)c1)C(=O)OC [Compound E-34, methyl (Z)-3-methoxy-2-[3-methyl-5-[3-(trifluoromethyl)pyrazol-1-yl]phenoxy]prop-2-enoate] the inhibition of growth at 20 ppm [2] was ≥ 80%, the inhibition of growth at 20 ppm [3] was ≥ 80% and the pest or weed control at 200 ppm [4] was ≥ 80%. For the same molecule, the pest or weed control at 200 ppm [5] was ≥ 80%, the pest or weed control at 200 ppm [16] was ≥ 80% and the pest or weed control at 200 ppm [6] was ≥ 80%. For the same molecule, the pest or weed control at 200 ppm [7] was ≥ 80%, the inhibition of growth at 20 ppm [8] was ≥ 80% and the inhibition of growth at 20 ppm [10] was ≥ 80%. For the same molecule, the inhibition of growth at 20 ppm [11] was ≥ 80%, the pest or weed control at 200 ppm [12] was ≥ 80% and the inhibition of growth at 20 ppm [13] was ≥ 80%. For the same molecule, the pest or weed control at 200 ppm [14] was ≥ 80%.
In the case of C/C=C/c1ccn(-c2ccc(C)c(O/C(=C\OC)C(=O)OC)c2)n1 [Compound E-38, methyl (Z)-3-methoxy-2-[2-methyl-5-[3-[(E)-prop-1-enyl]pyrazol-1-yl]phenoxy]prop-2-enoate], the pest or weed control at 200 ppm [1] is reported as ≥ 80%, the inhibition of growth at 20 ppm [2] is reported as ≥ 80% and the inhibition of growth at 20 ppm [3] is reported as ≥ 80%. The pest or weed control at 200 ppm [5] was ≥ 80%, the pest or weed control at 200 ppm [16] was ≥ 80% and the pest or weed control at 200 ppm [6] was ≥ 80%. The pest or weed control at 200 ppm [7] was ≥ 80%, the inhibition of growth at 20 ppm [8] was ≥ 80% and the inhibition of growth at 20 ppm [10] was ≥ 80%. The inhibition of growth at 20 ppm [11] was ≥ 80%, the pest or weed control at 200 ppm [12] was ≥ 80% and the inhibition of growth at 20 ppm [13] was ≥ 80%. The pest or weed control at 200 ppm [14] was ≥ 80% and the melting point was 110 to 112 °C.
In the case of CO/C=C(\Oc1cc(-n2ccc(C(C)=NOC)n2)ccc1C)C(=O)OC [Compound E-30, methyl (Z)-3-methoxy-2-[5-[3-(N-methoxy-C-methyl-carbonimidoyl)pyrazol-1-yl]-2-methyl-phenoxy]prop-2-enoate], the pest or weed control at 200 ppm [1] is reported as ≥ 80%, the inhibition of growth at 20 ppm [2] is reported as ≥ 80% and the inhibition of growth at 20 ppm [3] is reported as ≥ 80%. For the same molecule, the pest or weed control at 200 ppm [4] was ≥ 80%, the pest or weed control at 200 ppm [6] was ≥ 80% and the pest or weed control at 200 ppm [7] was ≥ 80%. For the same molecule, the inhibition of growth at 20 ppm [8] was ≥ 80%, the pest or weed control at 200 ppm [9] was ≥ 80% and the inhibition of growth at 20 ppm [10] was ≥ 80%. For the same molecule, the inhibition of growth at 20 ppm [11] was ≥ 80%, the pest or weed control at 200 ppm [12] was ≥ 80% and the pest or weed control at 200 ppm [15] was ≥ 50%. For the same molecule, the inhibition of growth at 20 ppm [13] was ≥ 80%, the pest or weed control at 200 ppm [14] was ≥ 80% and the melting point was 130 to 133 °C.
For CO/C=C(\Oc1cc(-n2cc(C(C)C)cn2)ccc1C)C(=O)OC [Compound E-57, methyl (Z)-2-[5-(4-isopropylpyrazol-1-yl)-2-methyl-phenoxy]-3-methoxy-prop-2-enoate], the pest or weed control at 200 ppm [1] was ≥ 80%, the inhibition of growth at 20 ppm [2] was ≥ 80% and the inhibition of growth at 20 ppm [3] was ≥ 80%. For the same molecule, the pest or weed control at 200 ppm [4] was ≥ 80%, the pest or weed control at 200 ppm [5] was ≥ 80% and the pest or weed control at 200 ppm [6] was ≥ 80%. For the same molecule, the pest or weed control at 200 ppm [7] was ≥ 80%, the inhibition of growth at 20 ppm [8] was ≥ 80% and the pest or weed control at 200 ppm [9] was ≥ 80%. The inhibition of growth at 20 ppm [10] was ≥ 80%, the inhibition of growth at 20 ppm [11] was ≥ 80% and the pest or weed control at 200 ppm [12] was ≥ 80%. For the same molecule, the pest or weed control at 200 ppm [15] was ≥ 50%, the inhibition of growth at 20 ppm [13] was ≥ 80% and the pest or weed control at 200 ppm [14] was ≥ 80%.
In the case of CO/C=C(\Oc1cc(-n2ccc(C(F)(F)F)n2)ccc1Cl)C(=O)OC [Compound E-98, methyl (Z)-2-[2-chloro-5-[3-(trifluoromethyl)pyrazol-1-yl]phenoxy]-3-methoxy-prop-2-enoate], the inhibition of growth at 20 ppm [2] is reported as ≥ 80%, the inhibition of growth at 20 ppm [3] is reported as ≥ 80% and the pest or weed control at 200 ppm [4] is reported as ≥ 80%. The pest or weed control at 200 ppm [5] was ≥ 80%, the pest or weed control at 200 ppm [6] was ≥ 80% and the pest or weed control at 200 ppm [7] was ≥ 80%. For the same molecule, the inhibition of growth at 20 ppm [8] was ≥ 80%, the inhibition of growth at 20 ppm [10] was ≥ 80% and the inhibition of growth at 20 ppm [11] was ≥ 80%. The pest or weed control at 200 ppm [12] was ≥ 80%, the pest or weed control at 200 ppm [15] was ≥ 50% and the inhibition of growth at 20 ppm [13] was ≥ 80%. The pest or weed control at 200 ppm [14] was ≥ 80%.
In the case of CO/C=C(\Oc1cc(-n2ccc(C3=CCCCC3)n2)ccc1C)C(=O)OC [Compound E-39, methyl (Z)-2-[5-[3-(cyclohexen-1-yl)pyrazol-1-yl]-2-methyl-phenoxy]-3-methoxy-prop-2-enoate], the pest or weed control at 200 ppm [1] is reported as ≥ 80%, the inhibition of growth at 20 ppm [2] is reported as ≥ 80% and the inhibition of growth at 20 ppm [3] is reported as ≥ 80%. For the same molecule, the pest or weed control at 200 ppm [4] was ≥ 80%, the pest or weed control at 200 ppm [5] was ≥ 80% and the pest or weed control at 200 ppm [16] was ≥ 80%. For the same molecule, the pest or weed control at 200 ppm [6] was ≥ 80%, the pest or weed control at 200 ppm [7] was ≥ 80% and the inhibition of growth at 20 ppm [8] was ≥ 80%. The inhibition of growth at 20 ppm [10] was ≥ 80%, the inhibition of growth at 20 ppm [11] was ≥ 80% and the pest or weed control at 200 ppm [12] was ≥ 80%. The inhibition of growth at 20 ppm [13] was ≥ 80%, the pest or weed control at 200 ppm [14] was ≥ 80% and the melting point was 108 to 110 °C.
